Here are results for two compounds from US20240408159A1, “PHYTOENE-CONTAINING OLEORESIN AND COMPOSITION” (LYCORED LTD., priority 2021, published 2024).

Molecules are shown by their SMILES.

The test system of one assay is IL-1a. The experiment in a line: DPM-induced IL-1a production in EpiDerm 3D reconstructed skin model. In kind it is cell-based, human. As to conditions: 48 hours, FIG. 6. Here is the method: The EpiDerm reconstructed skin system was obtained from the supplier MatTek (catalogue number EPI-200), and the tissue was handled according to the manufacturer's instructions. Briefly, upon delivery, the tissue was removed from its agar medium, washed and then left to recover overnight at 37 C, in a 5% CO2 environment. Then, the tissue was treated with topically-applied DPM (100 μg/ml in PBS, 10 μl/sample) in the presence or absence of the phytoene oleoresin diluted in jojoba wax at concentrations of 0.1, 1 and 2.5%, to a final volume of 30 μl. The following control groups were also set up: naïve tissue (untreated control), vehicle (jojoba wax), DPM-stimulated tissue and N-acetyl cysteine (NAC; positive control). Following addition of the test substances and controls, the reconstructed skin cultures were incubated for a further 48 hours at 37 C, in a 5% CO2 environment. At the end of the treatment period, the medium was collected from the tissue control implants and centrifuged at 250×g for 5 minutes, in order to remove particulate matter. […] IL-1a and IL-6 levels in the thawed medium were determined using commercial ELISA kits (ELISA Max Deluxe Set Human IL-1a catalogue number B265424; ELISA Max Deluxe Set Human IL-6 catalogue number B2852558; both supplied by Enco), according to the manufacturer's instructions.

Another assay deals with IL-8. The experiment in a line: Inhibition of UVB-induced IL-8 production in cultured HaCaT keratinocytes. In kind it is cell-based, human. To be noted: UVB lamp, test at final phytoene concentration 56 ppm, FIG. 5. Here is the method:
Spontaneously transformed adult human keratinocytes of the HaCaT line were grown, maintained, plated and treated with control and test substances as described in Example 1, above. The cultured cells were irradiated using a UVB lamp in order to generate an inflammatory response in the cultured cells. The control substances used in this study were: • Vehicle control (“Control” in FIG. 5) • UVB exposure only (“Untreated”) • 4-Aminobenzoic acid (“PABA”; positive control) The test substance used was a dilution of the composition of the present invention (i.e., containing non-GMO, solvent free phytoene and jojoba oil), yielding a final phytoene concentration of 56 ppm. The IL-8 concentration of the culture cell supernatants was measured as described in Example 1, above.

Regarding `CC(=O)N[C@@H](CS)C(=O)O` [NAC, N-acetyl cysteine], the “reduction in IL-1a production (positive control)” value in the assay with IL-1a is recorded as “reduction”. `Nc1ccc(C(=O)O)cc1` [PABA, 4-Aminobenzoic acid]: the “reduction in UVB-stimulated IL-8 production” value with IL-8 was “inhibition”.
